In the supplement of paper PMC11281043:
± gives the standard deviation of the averaged measurements.

What was measured:
Details in all cases: exposure: 6-8 hpf to 5 dpf, scored at 6 dpf
Danio rerio embryo/larva [1] = assay: max % larvae unhatched across tested concentrations; max tested concentration (log10 uM): 2; higher = more toxic
Danio rerio embryo/larva [2] = assay: max % larvae dead across tested concentrations; max tested concentration (log10 uM): 2; higher = more toxic; extreme values may be limits of the assay
Danio rerio embryo/larva [3] = assay: max % larvae with any abnormality across tested concentrations; max tested concentration (log10 uM): 2; higher = more toxic; extreme values may be limits of the assay

| Compound | max % larvae unhatched across tested concentrations (Danio rerio embryo/larva [1]) [%] | max % larvae dead across tested concentrations (Danio rerio embryo/larva [2]) [%] | max % larvae (Danio rerio embryo/larva [3]) [%] |
| --- | --- | --- | --- |
| C=C(C)C(=O)OCCC(F)(F)C(F)(F)C(F)(F)C(F)(F)C(F)(F)C(F)(F)C(F)(F)C(F)(F)F [2-(Perfluorooctyl)ethyl methacrylate] | 0 | 0 | 0 |
| O=S(=O)(O)C(F)(F)C(F)(F)C(F)(F)C(F)(F)F [Potassium perfluorobutanesulfonate] | 0 | 0 | 8.33 |
| O=C(O)C(F)(F)C(F)(F)C(F)(F)OC(F)(F)F [Perfluoro(4-methoxybutanoic acid)] | 0 | 0 | 0 |
| CCOC(=O)CC(=O)C(F)(F)C(F)(F)F [Ethyl pentafluoropropionyl acetate] | 0 | 0 | 0 |
| O=C(O)C(F)(F)C(F)(F)C(F)(F)F [Perfluorobutanoic acid] | 0 | 0 | 20 |
| O=C(O)C(F)(F)C(F)(F)C(F)(F)OC(F)(C(F)(F)F)C(F)(F)F [Perfluoro-4-isopropoxybutanoic acid] | 0 | 0 | 0 |
| O=S(=O)(O)C(F)(F)C(F)(F)C(F)(F)C(F)(F)F [Perfluorobutanesulfonic acid] | 0 | 0 | 0 |
| C=C(C)C(=O)OCCC(F)(F)C(F)(F)C(F)(F)C(F)(F)C(F)(C(F)(F)F)C(F)(F)F [(Perfluoro-5-methylhexyl)ethyl 2-methylprop-2-enoate] | 0 | 0 | 0 |
| OCCC(F)(F)C(F)(F)C(F)(F)C(F)(F)F [4:2 Fluorotelomer alcohol] | 0 | 0 | 4.17 |
| COC(=O)C(F)(F)C(F)(F)C(F)(F)C(F)(F)C(F)(F)F [Methyl perfluorohexanoate] | 0 | 0 | 0 |
| O=S(=O)(O)CCC(F)(F)C(F)(F)C(F)(F)C(F)(F)C(F)(F)C(F)(F)F [6:2 Fluorotelomer sulfonic acid] | 0 | 16.7 | 16.7 |
| FC(F)(F)C(F)(F)C(F)(F)CC1CO1 (stereo unspecified) [1H,1H-Heptafluorobutyl epoxide] | 0 | 0 | 9.09 |
| O=C(CC(=O)C(F)(F)F)C(F)(F)F [1,1,1,5,5,5-Hexafluoro-2,4-pentanedione] | 0 | 0 | 0 |
| O=C(O)C(F)(F)C(F)(F)C(F)(F)C(F)(F)C(F)(F)F [Perfluorohexanoic acid] | 0 | 0 | 0 |
| OCC(F)(F)C(F)(F)C(F)(F)F [3:1 Fluorotelomer alcohol] | 0 | 0 | 8.33 |
| O=C(O)C(F)(F)C(F)(F)OC(F)(F)F [Perfluoro-3-methoxypropanoic acid] | 0 | 0 | 16.7 |
| O=C(O)C(F)(F)C(F)(F)C(F)F [4H-Perfluorobutanoic acid] | 0 | 0 | 0 |
| FC(F)(F)C(F)(F)C(F)(F)C(F)(F)CCI [1H,1H,2H,2H-Perfluorohexyl iodide] | 0 | 0 | 8.33 |
| O=C(O)C(F)(F)OC(F)(F)C(F)(F)OC(F)(F)F [Perfluoro-3,6-dioxaheptanoic acid] | 0 | 0 | 4.17 |

| Compound | max % larvae unhatched across tested concentrations (Danio rerio embryo/larva [1]) [%] | max % larvae dead across tested concentrations (Danio rerio embryo/larva [2]) [%] | max % larvae (Danio rerio embryo/larva [3]) [%] |
| --- | --- | --- | --- |
| C=CC(=O)OCCC(F)(F)C(F)(F)C(F)(F)C(F)(F)C(F)(F)C(F)(F)C(F)(F)C(F)(F)F [2-(Perfluorooctyl)ethyl acrylate] | 0 | 0 | 0 |
| NCC(F)(F)C(F)(F)C(F)(F)C(F)(F)C(F)(F)C(F)(F)C(F)(F)F [1H,1H-Perfluorooctylamine] | 0 | 8.33 ± 12 | 33.3 ± 47 |
| O=C(O)C(F)(F)C(F)(F)C(F)(F)C(F)(F)C(F)(F)C(F)(F)C(F)F [8H-Perfluorooctanoic acid] | 0 | 0 | 16.7 |
| C=C(C)C(=O)OCC(F)(F)C(F)(F)C(F)(F)F [(Perfluoropropyl)methyl methacrylate] | 0 | 0 | 8.33 |
| O=C(Cl)C(F)(F)C(F)(F)C(F)(F)C(F)(F)C(F)(F)C(F)(F)F [Perfluoroheptanoyl chloride] | 0 | 0 | 16.7 |
| CCN(CCO)S(=O)(=O)C(F)(F)C(F)(F)C(F)(F)C(F)(F)C(F)(F)C(F)(F)C(F)(F)C(F)(F)F [N-Ethyl-N-(2-hydroxyethyl)perfluorooctane sulfonamide] | 0 | 0 | 12.5 |
| FC(F)(Br)C(F)(F)C(F)(F)C(F)(F)C(F)(F)C(F)(F)Br [1,6-Dibromododecafluorohexane] | 0 | 0 | 4.17 |
| O=C(Cl)C(F)(F)C(F)(F)C(F)(F)C(=O)Cl [Hexafluoroglutaryl chloride] | 0 | 0 | 0 |
| O=C(O)C(F)(F)C(F)(F)C(F)(F)C(=O)O [Perfluoropentanedioic acid] | 0 | 0 | 0 |
| C=CC(=O)OCC(F)(F)C(F)(F)C(F)(F)C(F)(F)C(F)(F)C(F)(F)C(F)(F)F [1H,1H-Perfluorooctyl acrylate] | 0 | 0 | 0 |
| OCC(F)(F)C(F)(F)C(F)(F)C(F)F [1H,1H,5H-Perfluoropentanol] | 0 | 16.7 | 16.7 |
| O=C(O)C(F)(F)C(F)(F)C(F)(F)C(F)(F)C(F)(F)C(F)(F)C(F)(F)F [Potassium perfluorooctanoate] | 0 | 16.7 | 16.7 |
| O=C(O)CCC(F)(C(F)(F)F)C(F)(F)F [4,4-bis(Trifluoromethyl)-4-fluoropropanoic acid] | 0 | 16.7 | 16.7 |
| O=S(=O)(O)CCC(F)(F)C(F)(F)C(F)(F)C(F)(F)F [4:2 Fluorotelomer sulfonic acid] | 0 | 0 | 0 |
| C=C(C)C(=O)OCCC(F)(F)C(F)(F)C(F)(F)C(F)(F)C(F)(F)C(F)(F)F [2-(Perfluorohexyl)ethyl methacrylate] | 0 | 0 | 0 |
| NC(=O)C(F)(F)C(F)(F)C(F)(F)C(F)(F)C(F)(F)C(F)(F)C(F)(F)F [Perfluorooctanamide] | 0 | 0 | 0 |
| NC(=O)C(F)(F)C(F)(F)C(F)(F)C(F)(F)F [Nonafluoropentanamide] | 0 | 0 | 0 |
| O=C(O)C(F)(F)C(F)(F)F [Perfluoropropanoic acid] | 0 | 0 | 0 |
